pKi: −log10 of the molar value.

In the experiment the target is Carbonic anhydrase 12 (Homo sapiens, UniProt O43570).
Sequence of Carbonic anhydrase 12 (O43570 whole entry): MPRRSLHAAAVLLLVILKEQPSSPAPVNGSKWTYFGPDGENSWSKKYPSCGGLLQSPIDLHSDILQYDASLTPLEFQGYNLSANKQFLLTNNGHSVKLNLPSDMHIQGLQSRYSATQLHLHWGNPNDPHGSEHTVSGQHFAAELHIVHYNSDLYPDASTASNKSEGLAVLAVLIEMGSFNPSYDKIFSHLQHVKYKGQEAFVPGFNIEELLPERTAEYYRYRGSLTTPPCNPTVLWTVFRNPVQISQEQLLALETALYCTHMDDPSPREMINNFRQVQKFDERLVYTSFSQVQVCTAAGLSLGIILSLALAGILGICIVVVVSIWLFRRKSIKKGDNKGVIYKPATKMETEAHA
As for `CNc1ccc(S(N)(=O)=O)cc1`, the pKi is 7.43.

`NNc1ccccc1S(N)(=O)=O`: the pKi was 7.24. For `N[S+]([O-])c1ccc(S(=O)(=O)Nc2cccc3c(Cl)c[nH]c23)cc1` (stereo not given) the value was 8.47; for `CN(N)c1ccc(S(N)(=O)=O)cc1`, 7.96. Molecule `Nc1ccc(S(=O)(=O)NCc2ccc(S(N)(=O)=O)cc2)cc1` showed a pKi of 8.46. In turn, `Nc1ccc(S(N)(=O)=O)cc1I` had a pKi of 7.96. Consider `Nc1ccc(S(=O)(=O)Nc2nnc(S(N)(=O)=O)s2)cc1`, for which the pKi was 7.07. For `NS(=O)(=O)c1nnc(-c2ccccc2Cl)s1` the value was 7.44; for `Nc1nccc(Nc2ccc(S(N)(=O)=O)cc2)n1`, 8.47; for `Nc1ccccc1S(N)(=O)=O`, 9.07. `Nc1ccc(S(N)(=O)=O)cc1Br` had a pKi of 7.70.

`Cn1nc(S(N)(=O)=O)sc1=N` had a pKi of 8.40. `NS(=O)(=O)c1ccc(CCO)cc1` gave a pKi of 7.26. Turning to `Nc1ccc(S(N)(=O)=O)cc1F`, the pKi was 8.96. For the molecule `NS(=O)(=O)c1ccc(CO)cc1`, the pKi is 6.66.

`Nc1ccc(S(N)(=O)=O)cc1Cl` had a negative-log Ki (pKi) of 8.51. In turn, `Nc1ccc(S(=O)(=O)NCCc2ccc(S(N)(=O)=O)cc2)cc1` had a pKi of 8.35. The pKi values of the last two molecules are within 0.2 log units of each other.

`NS(=O)(=O)c1ccc(C(=O)O)cc1` [CARZENIDE] gave a pKi of 7.47. This pKi lies 0.88 log units lower than the previous one.

`NCc1ccc(S(N)(=O)=O)cc1` [MAFENIDE] showed a pKi of 9.52. `Cc1ccc(S(N)(=O)=O)cc1` [P-TOLUENESULFONAMIDE] gave a pKi of 8.74. This pKi is 0.78 log units lower than that of the molecule before.

For orientation: pKi means −log10 of the Ki, conventionally taken in molar units.

For the origin of these results see ChEMBL document CHEMBL1141984, “Carbonic anhydrase inhibitors. Inhibition of the transmembrane isozyme XII with sulfonamides-a new target for the design of antitumor and antiglaucoma drugs?” (Bioorg Med Chem Lett, 2005).
